The values below come from patent publication US20240270741A1 (Cogent Biosciences, Inc., priority 2023, published 2024).

Molecules are shown by their SMILES.

For the first assay, the target named is FGFR2 (Homo sapiens, UniProt P21802). The assay can be described thus: FGFR wild type enzyme assay (HTRF KinEASE-TK), FGFR2. To be noted: Enz FGFR2 (nM). On the technique in general: TR-FRET usually uses a lanthanide donor and a delayed reading to cut background.
Chain of FGFR2 (P21802 399-821 limits assumed): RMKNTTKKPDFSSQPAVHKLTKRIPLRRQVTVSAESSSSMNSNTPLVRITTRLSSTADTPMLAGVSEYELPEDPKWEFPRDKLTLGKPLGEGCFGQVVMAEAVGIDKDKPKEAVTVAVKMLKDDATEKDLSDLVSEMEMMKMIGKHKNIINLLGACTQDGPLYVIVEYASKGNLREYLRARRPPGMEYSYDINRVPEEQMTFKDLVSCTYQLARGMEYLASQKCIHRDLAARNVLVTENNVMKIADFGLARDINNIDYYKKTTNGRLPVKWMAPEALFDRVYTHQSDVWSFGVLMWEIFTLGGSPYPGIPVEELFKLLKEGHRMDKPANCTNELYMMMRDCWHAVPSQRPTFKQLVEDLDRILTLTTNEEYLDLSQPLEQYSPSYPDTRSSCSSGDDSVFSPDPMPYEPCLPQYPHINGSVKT
Consider `CSc1cc(-c2cnn([C@H]3CCCNC3)c2)cn2ncc(C#N)c12` [Example 50, 4-methylsulfanyl-6-[1-[(3S)-3-piperidyl]pyrazol-4-yl] pyrazolo[1,5-a]pyridine-3-carbonitrile], for which the IC50 (in general, the concentration that inhibits the measured activity by half) was found to be 2 nM. Consider `CC(C)Sc1cc(-c2cnn([C@H]3CCCNC3)c2)cn2ncc(C#N)c12` [Example 52, 4-isopropylsulfanyl-6-[1-[(3S)-3-piperidyl]pyrazol-4-yl]pyrazolo[1,5-a]pyridine-3-carbonitrile], for which the IC50 was found to be 2 nM.

Still in this assay, the particulars now being: Enz FGFR2 (nM), FGFR2 wild type enzyme.
On to `CN[C@]1(C)CC[C@H](n2ncc(-c3cc(Sc4ncccc4F)c4c(C#N)cnn4c3)c2C)CC1` [Example 295, 4-((3-fluoropyridin-2-yl)thio)-6-(5-methyl-1-((1s,4s)-4-methyl-4-(methylamino)cylcohexyl)-1H-pyrazol-4-yl)pyrazolo[1,5-a]pyridine-3-carbonitrile], for which the half-inhibitory concentration (IC50) worked out at 1 nM.

Regarding `Cc1c(-c2cc(Sc3ncccc3F)c3c(C#N)cnn3c2)cnn1C[C@H]1CCCNC1` [Example 206, (S)-4-((3-fluoropyridin-2-yl)thio)-6-(5-methyl-1-(piperidin-3-ylmethyl)-1H-pyrazol-4-yl)pyrazolo[1,5-a]pyridine-3-carbonitrile], the IC50 turned out to be 3 nM. Same read-out and setting: to `Cc1c(-c2cc(Sc3ncccc3F)c3c(C#N)cnn3c2)cnn1C1CCN(Cc2ncccn2)CC1` [Example 216, 4-((3-fluoropyridin-2-yl)thio)-6-(5-methyl-1-(1-(pyrimidin-2-ylmethyl)piperidin-4-yl)-1H-pyrazol-4-yl)pyrazolo[1,5-a]pyridine-3-carbonitrile] belongs 2 nM; to `Cc1c(-c2cc(Sc3ncccc3F)c3c(C#N)cnn3c2)cnn1[C@@H]1CCNC[C@H]1F` [Example 223], 8 nM; to `Cc1c(-c2cc(Sc3ccccc3C#N)c3c(C#N)cnn3c2)cnn1[C@H]1CC[C@@H](O)CC1` [Example 188, 4-((2-cyanophenyl)thio)-6-(1-((1s,4s)-4-hydroxycyclohexyl)-5-methyl-1H-pyrazol-4-yl)pyrazolo[1,5-a]pyridine-3-carbonitrile], 0.5 nM. As to `CCN(C)C1CCC(n2ncc(-c3cc(Sc4ncccc4F)c4c(C#N)cnn4c3)c2C)CC1` (stereo not drawn) [Example 172, 6-(1-(4-(ethyl(methyl)amino)cyclo-hexyl)-5-methyl-1H-pyrazol-4-yl)-4-((3-fluoropyridin-2-yl)thio)pyrazolo[1,5-a]pyridine-3-carbonitrile], the IC50 is 1 nM. In the case of `Cc1c(-c2cc(Sc3ccc(F)cc3C#N)c3c(C#N)cnn3c2)cnn1[C@H]1C[C@H]2CC[C@@H](C1)N2C` [Example 300, 4-((2-cyano-4-fluorophenyl)thio)-6-(5-methyl-1-((1R,3r,5S)-8-methyl-8-azabicyclo[3.2.1]octan-3-yl)-1H-pyrazol-4-yl)pyazolo[1,5-a]pyridine-3-carbonitrile], the IC50 was 1 nM. Still for that read-out and setting: the same measure for `Cc1c(-c2cc(Sc3ncccc3F)c3c(C#N)cnn3c2)cnn1[C@H]1CC[C@@H](O)CC1` [Example 184, 4-((3-fluoropyridin-2-yl)thio)-6-(1-((1s,4s)-4-hydroxycyclohexyl)-5-methyl-1H-pyrazol-4-yl)pyrazolo[1,5-a]pyridine-3-carbonitrile]: 1.6 nM; for `CC(=O)N1CC[C@]2(CC[C@H](n3ncc(-c4cc(Sc5ccccc5C#N)c5c(C#N)cnn5c4)c3C)CC2)C1` [Example 322, 6-(1-((5s,8s)-2-acetyl-2-azaspiro[4.5]decan-8-yl)-5-methyl-1H-pyrazol-4-yl)-4-((2-cyanophenyl)thio)pyrazolo [1,5-a]pyridine-3-carbonitrile]: 0.6 nM; for `Cc1c(-c2cc(Sc3ccccc3C#N)c3c(C#N)cnn3c2)cnn1[C@H]1CC[C@@H](N(C)CCO)CC1` [Example 318, 4-((2-cyanophenyl)thio)-6-(1-((1s,4s)-4-((2-hydroxyethyl)(methyl)ami-no)cyclohexyl)-5-methyl-1H-pyrazol-4-yl)pyrazolo[1,5-a]pyridine-3-carbonitrile]: 0.4 nM. Molecule `Cc1c(-c2cc(Sc3ccc(F)cn3)c3c(C#N)cnn3c2)cnn1[C@@H]1C[C@H]2CC[C@@H](C1)N2C(=O)CO` [Example 310, 4-((5-fluoropyridin-2-y)thio)-6-(1-((1R,3s,5S)-8-(2-hydroxyacetyl)-8-azabicyclo[3.2.1]octan-3-yl)-5-methyl-1H-pyrazol-4-yl)pyrazolo[1,5-a]pyridine-3-carobnitrile] gave an IC50 of 8 nM. Still for that read-out and setting: to `Cc1c(-c2cc(Sc3ncccc3F)c3c(C#N)cnn3c2)cnn1C[C@H]1CC[C@H](O)CC1` [Example 239, 4-((3-fluoropyridin-2-yl)thio)-6-(1-(((1r,4r)-4-hydroxycyclohexyl)methyl)-5-methyl-1H-pyrazol-4-yl)pyrazolo[1,5-a]pyridine-3-carbonitrile] belongs 3 nM; to `Cc1c(-c2cc(Sc3ccccc3C#N)c3c(C#N)cnn3c2)cnn1C1CCN(CC(=O)N(C)C)CC1` [Example 266, 2-(4-(4-(3-cyano-4-((2-cyanophenyl)thio)pyrazolo [1,5-a]pyridin-6-yl)-5-methyl-1H-pyrazol-1-yl)piperidin-1-yl)-N,N-dimethylacetamide], 0.5 nM.

The assay is the same for the next values; noted with them: Enz FGFR2 (nM), FGFR2 wild type enzyme assay.
Consider `N#Cc1ccccc1Sc1cc(-c2ccc(N3CCCC3)nc2)cn2ncc(C#N)c12` [Example 549, 4-((2-cyanophenyl)thio)-6-(6-(pyrrolidin-1-yl)pyridin-3-yl)pyrazolo[1,5-a]pyridine-3-carbonitrile], for which the IC50 worked out at 1 nM. Same read-out and setting: to `Cc1c(-c2cc(Sc3cccc(F)c3C#N)c3c(C#N)cnn3c2)cnn1C1CCN(C)CC1` [Example 356, 4-((2-cyano-3-fluorophenyl)thio)-6-(5-methyl-1-(1-methylpiperidin-4-yl)-1H-pyrazol-4-yl)pyrazolo[1,5-a]pyridine-3-carbonitrile] belongs 10 nM. On the same count and under the same terms, the same measure for `CC(=O)N1CCN(c2ccc(-c3cc(Sc4ccccc4C#N)c4c(C#N)cnn4c3)cn2)CC1` [Example 664, 6-(6-(4-acetylpiperazin-1-yl)pyridin-3-yl)-4-((2-cyanophenyl)thio)pyrazolo [1,5-a]pyridine-3-carbonitrile]: 0.2 nM; for `CC(=O)N1[C@@H]2CC[C@H]1C[C@H](n1cc(-c3cc(Sc4ccc(F)cc4C#N)c4c(C#N)cnn4c3)c(C)n1)C2` [Example 410, 6-(1-((1R,3s,5S)-8-acetyl-8-azabicyclo[3.2.1]octan-3-yl)-3-methyl-1H-pyrazol-4-yl)-4-((2-cyano-4-fluorophenyl)thio)pyrazolo [1,5-a]pyridine-3-carbonitrile]: 26 nM.

`Cc1nn([C@H]2CCCNC2)cc1-c1cc(Sc2ccccc2C#N)c2c(C#N)cnn2c1` [Example 413, (S)-4-((2-cyanophenyl)thio)-6-(3-methyl-1-(piperidin-3-yl)-1H-pyrazol-4-yl)pyrazolo[1,5-a]pyridine-3-carbonitrile] returned an IC50 of 3 nM.

In turn, `N#Cc1ccccc1Sc1cc(-c2cn([C@H]3CCNC3)nn2)cn2ncc(C#N)c12` [Example 464, (S)-4-((2-cyanophenyl)thio)-6-(1-(pyrrolidin-3-yl)-1H-1,2,3-triazol-4-yl)pyrazolo[1,5-a]pyridine-3-carbonitrile] gave an IC50 of 5 nM. Still for that read-out and setting: the same measure for `CC(=O)N1CCCC(n2cc(-c3cc(Sc4ccccc4C#N)c4c(C#N)cnn4c3)cn2)CC1` (stereo not drawn) [Example 520, 6-(1-(1-acetylazepan-4-yl)-1H-pyrazol-4-yl)-4-((2-cyanophenyl)thio)pyrazolo [1,5-a]pyridine-3-carbonitrile]: 0.4 nM; for `Cc1c(-c2cc(Sc3ccc(F)cc3C#N)c3c(C#N)cnn3c2)cnn1C1CCN(C(=O)CO)CC1` [Example 339, 4-((2-cyano-4-fluorophenyl)thio)-6-(1-(1-(2-hydroxyacetyl)piperidin-4-yl)-5-methyl-1H-pyrazol-4-yl)pyrazolo[1,5-a]pyridine-3-carbonitrile]: 1 nM; for `N#Cc1cc(F)ccc1Sc1cc(-c2ccc(N3CCNCC3)nc2)cn2ncc(C#N)c12` [Example 595, 4-((2-cyano-4-fluorophenyl)thio)-6-(6-(piperazin-1-yl)pyridin-3-yl)pyrazolo[1,5-a]pyridine-3-carbonitrile]: 15 nM. The same measure, in the same setting: to `Cc1cccc(C#N)c1Sc1cc(-c2cnn(C)c2)cn2ncc(C#N)c12` [Example 597, 4-((2-cyano-6-methylphenyl)thio)-6-(1-methyl-1H-pyrazol-4-yl)pyrazolo[1,5-a]pryidine-3-carbonitrile] belongs 30 nM; to `N#Cc1cc(F)ccc1Sc1cc(-c2cnn(C3CCN(C(=O)CO)CC3)c2)cn2ncc(C#N)c12` [Example 445, 4-((2-cyano-4-fluorophenyl)thio)-6-(1-(1-(2-hydroxyacetyl)piperidin-4-yl)-1H-pyrazol-4-yl)pyrazolo[1,5-a]pyridine-3-carbonitrile], 1 nM; to `CS(=O)(=O)N1CCC(n2cc(-c3cc(Sc4ccccc4C#N)c4c(C#N)cnn4c3)cn2)CC1` [Example 513, 4-((2-cyanophenyl)thio)-6-(1-(1-(methylsulfonyl)piperidin-4-yl)-1H-pyrazol-4-yl)pyrazolo[1,5-a]pyridine-3-carbonitrile], 1 nM. Still for that read-out and setting: to `N#Cc1cnn2cc(-c3cnn([C@H]4CCCNC4)n3)cc(Sc3ncccc3F)c12` [Example 457, 4-[(3-fluoro-2-pyridyl)sulfanyl]-6-[2-[(3S)-3-piperidyl]triazol-4-yl]pyrazolo[1,5-a]pyridine-3-carbonitrile] belongs 13 nM; to `Cc1c(-c2cc(Sc3ncc(F)cc3F)c3c(C#N)cnn3c2)cnn1C1CCN(C(=O)[C@H](C)O)CC1` [Example 342, (S)-4-((3,5-difluoropyridin-2-yl)thio)-6-(1-(1-(2-hydroxypropanoyl)piperidin-4-yl)-5-methyl-1H-pyrazol-4-yl)pyrazolo[1,5-a]pyridine-3-carbonitrile], 6 nM.

`Cc1c(-c2cc(Sc3ncc(Cl)cc3F)c3c(C#N)cnn3c2)cnn1C1CCN(C)CC1` [Example 376, 4-((5-chloro-3-fluoropyridin-2-yl)thio)-6-(5-methyl-1-(1-methylpiperidin-4-yl)-1H-pyrazol-4-yl)pyrazolo[1,5-a]pryidine-3-carbonitrile] yielded an IC50 of 5.5 nM.
